In patent US20230058178A1, “METHODS AND MATERIALS FOR TREATING NERVE INJURY AND/OR PROMOTING WOUND HEALING” (The Penn State Research Foundation, priority 2020, published 2023):

What was measured:
[1] = test system: sciatic nerve crush injury; assay: Triceps surae muscle tension 3 days post sciatic nerve crush injury; type: in vivo, rat; details: 3 days post crush
From the text: Sciatic nerve crush injury was done 3 mm proximal to trifurcation.
Anesthesia was maintained with 2% isoflurane.

[2] = test system: sciatic nerve crush injury; details: systemic administration (Tseng et al. 2016); cited from earlier work
[3] = test system: sciatic nerve crush injury; assay: Triceps surae muscle tension immediately after sciatic nerve crush injury; type: in vivo, rat
Experimental: (§1) Sciatic nerve innervates triceps surae muscle and thus sciatic nerve conduction can be measured in terms of triceps surae muscle contraction. As shown in this experimental setup (FIG. 2) sciatic nerve was electrically stimulated proximal to crush site, and triceps surae muscle tension was measured by force transducer (FT10; Grass Instruments).
(§2) Briefly, Sprague-Dawley (SD) rats were anaesthetized with 3-4% isoflurane, the trachea was cannulated, and the lungs were mechanically ventilated (Harvard Apparatus) with oxygen balanced vaporized 2% isoflurane. The sciatic nerve and triceps surae muscles were exposed by blunt dissection and the calcaneal tendon was severed and linked with braided fishing line to a force transducer. A shielded stimulating electrode was placed under sciatic nerve and injury was performed distal to a stimulating electrode. Sciatic nerve underwent a standardized crush injury with blunt forcep (Miltex #18-1107) and jig or laceration injury with fine scissors. Sciatic nerve crush injury was done 3 mm proximal to trifurcation. The triceps surae muscles were contracted for 10 seconds at 40 Hz, 0.1 ms pulse, and a voltage two times above the motor threshold.

[4] = 150 μg/kg i.p., SD rat
Experimental: 4-AP stock was prepared in saline and i.p. dose of 150 μg/kg was administered in rats.
Circulating level of 4-AP in rat serum sample was evaluated using ABSciex 4000 Q Trap mass spectrometry coupled with a Waters Acquity UPLC separation (UPLC/MS/MS) system in the Mass Spectrometry Core Facility in College of Medicine of Penn State University.
4-AP-d4 was used as an internal standard. The multiple reaction monitoring mode (MRM) was used to analyze and quantify 4-AP and 4-AP-d4, with the transitions of m/z 95>78 for 4-AP and 99>82 for 4-AP-d4. 4-AP was quantified by using a standard curve which was constructed by plotting the ratio of the peak area of 4-AP to the peak area 4-AP-d4 versus 4-AP concentration (0.01 μM-20 μM). All peaks were integrated and quantified by ABSciex Multiquan 2.1 software.

nerve transection = assay: Triceps surae muscle tension after sciatic nerve transection (laceration) injury; type: in vivo, rat; details: 150 μg/kg i.p.
Experimental: as §1, §2

[5] = test system: Dorsal skin excision wounds; assay: Dorsal skin excision wound closure; type: in vivo, mouse
Experimental: Dorsal skin excision wounds (5-mm diameter) were made on 7-8-week-old wild-type C57BL/6 mice (FIG. 15). Mice were systemically administered saline (control) or 80 μg of 4-AP daily for 14 days. All mice were subjected to functional wound healing and tissue regeneration image-based assays at days 0, 3, 7, 10, and 14. The wound size of each mouse was measured and compared to zero day wound diameter from digital images. The percentage of wound closure was calculated by using the formula:
Wound closure (%)=(area of original wound−area of actual wound)/area of original wound×100.

[6] = cited from earlier work

SMILES: Nc1ccncc1 [4-AP, 4-aminopyridine]
- muscle tension ([1]; lower stimulation voltage, 30 minutes after 150 μg/kg i.p. or local thermogel): 250 g
- AUC of muscle tension ([1]; systemic or local treatment): significantly increased
- Muscle response increase over a crush ([1]; systemic or local treatment): 80%
- peak muscle tension ([1]; systemic or local treatment): significantly increased
- motor functional recovery after sciatic nerve crush injury [2]: improve motor functional recovery after sciatic nerve crush injury
- muscle tension ([3]; 30 minutes after 4-AP 150 μg/kg i.p. or local thermogel, 2100 g before injury, none post crush): 900 g
- Muscle response increase over a crush ([3]; systemic (150 μg/kg i.p.) or local treatment): 800%
- AUC of muscle tension ([3]; systemic or local treatment): significantly increased
- peak muscle tension ([3]; systemic or local treatment): significantly increased
- 4-AP concentration in serum [4]: tolerable 4-AP concentration in serum
- restoration of nerve conduction upon treatment (nerve transection): does not occur
- reduction in wound area as compared to control animals ([5]; by seven days, systemic delivery): at least 50%
- diameter/width of the wound area ([5]; day 3, 5 mm wound at day 0, 80 μg daily systemic (saline 5 mm)): 4.0 mm
- diameter/width of the wound area ([5]; day 7, 80 μg daily systemic (saline 2.7 mm)): 1.5 mm
- diameter/width of the wound area ([5]; day 10, 80 μg daily systemic (saline 1.0)): 0.3 mm
- wound area reduction as compared to control animals ([5]; in three days, systemic delivery): at least 10%
- wound healing compared to saline treated mice ([5]; systemic administration): accelerates the wound healing process
- human tolerable limit of serum 4-AP [6]: 100 ng/mL
